Holding throughout (format): in vivo
What all share (details): 250 g/ha, evaluated after 13 days

In assay [1] the test system is Amaranthus palmeri (AMAPA). The experiment in a line: Post-emergence herbicide glasshouse test. The protocol: (§1) Seeds of a variety of test species are sown in standard soil in pots Amaranthus palmeri (AMAPA), Amaranthus retoflexus (AMARE), Echinochloa crus-galli (ECHCG), Ipomoea hederacea (IPOHE)). After cultivation for one day (pre-emergence) or after 8 days cultivation (post-emergence) under controlled conditions in a glasshouse (at 24/16° C., day/night; 14 hours light; 65% humidity), the plants are sprayed with an aqueous spray solution derived from the formulation of the technical active ingredient in acetone/water (50:50) solution containing 0.5% Tween 20 (polyoxyethelyene sorbitan monolaurate, CAS RN 9005-64-5). Compounds are applied at 250 g/ha unless otherwise stated. The test plants are then grown in a glasshouse under controlled conditions in a glasshouse (at 24/16° C., day/night; 14 hours light; 65% humidity) and watered twice daily. After 13 days for pre and post-emergence, the test is evaluated for the percentage damage caused to the plant. The biological activities are shown in the following table on a five-point scale (5=81-100%; 4=61-80%; 3=41-60%; 2=21-40%; 1=0-20%).

In assay [2] the test system is Amaranthus retoflexus (AMARE). The experiment in a line: Post-emergence herbicide glasshouse test. The protocol:
as §1

Assay [3] relates to Echinochloa crus-galli (ECHCG). Put plainly: Post-emergence herbicide glasshouse test. The protocol:
as §1

For assay [4], the system named is Ipomoea hederacea (IPOHE). The experiment in a line: Post-emergence herbicide glasshouse test. As for the experimental part: as §1
The subject of assay [5] is Amaranthus palmeri (AMAPA). Put plainly: Pre-emergence herbicide glasshouse test. The protocol:
as §1

For assay [6], the system named is Amaranthus retoflexus (AMARE). The experiment in a line: Pre-emergence herbicide glasshouse test. The protocol: as §1
In assay [7] the test system is Echinochloa crus-galli (ECHCG). Put plainly: Pre-emergence herbicide glasshouse test. The protocol:
as §1

For assay [8], the system named is Ipomoea hederacea (IPOHE). The experiment in a line: Pre-emergence herbicide glasshouse test. As for the experimental part: as §1

`Cn1ccc(Cn2cc(C(F)(F)F)nc2-c2cnc(Cl)c(F)c2)n1` [Compound 1.026]: the “percentage damage caused to the plant, AMAPA (five-point scale)” value is given as 4 (4=61-80%) in assay [1] and 5 (5=81-100%) in assay [5]. Also, the “percentage damage caused to the plant, AMARE (five-point scale)” value was 4 (4=61-80%) in assay [2] and 5 (5=81-100%) in assay [6]. Further, the figures for the “percentage damage caused to the plant, ECHCG (five-point scale)” value in assay [3] and in assay [7] were 3 (3=41-60%) and 4 (4=61-80%), respectively. The “percentage damage caused to the plant, IPOHE (five-point scale)” value is reported as 4 (4=61-80%) in assay [4] and 5 (5=81-100%) in assay [8].

Take `Cc1cc(Cn2cc(C(F)(F)F)nc2-c2ccc(C(F)(F)F)cc2)no1` [Compound 1.013]: the “percentage damage caused to the plant, AMAPA (five-point scale)” value in assay [1] and in assay [5] was 5 (5=81-100%) throughout. Besides, the “percentage damage caused to the plant, AMARE (five-point scale)” value in assay [2] is 4 (4=61-80%); in assay [6] it was 5 (5=81-100%). For the same molecule, the “percentage damage caused to the plant, ECHCG (five-point scale)” value in assay [3] was 4 (4=61-80%); in assay [7] it was 5 (5=81-100%). In addition, the “percentage damage caused to the plant, IPOHE (five-point scale)” value was 4 (4=61-80%) in assay [4] and 5 (5=81-100%) in assay [8].

Take `FC(F)(F)c1ccc(-c2nc(C(F)(F)F)cn2Cc2ccno2)cc1` [Compound 1.009]: the “percentage damage caused to the plant, AMAPA (five-point scale)” value in assay [1] and in assay [5] was 1 (1=0-20%) in each case. The figures for the “percentage damage caused to the plant, AMARE (five-point scale)” value in assay [2] and in assay [6] were 2 (2=21-40%) and 1 (1=0-20%), respectively. Also, the “percentage damage caused to the plant, ECHCG (five-point scale)” value in assay [3] and in assay [7] was 1 (1=0-20%) in each case. The “percentage damage caused to the plant, IPOHE (five-point scale)” value in assay [4] is 3 (3=41-60%); in assay [8], 1 (1=0-20%).

On to `FC(F)c1cc(Cn2cc(C(F)(F)F)nc2-c2ccc(Cl)nc2)no1` [Compound 1.059], for which the “percentage damage caused to the plant, AMAPA (five-point scale)” value in assay [1] and in assay [5] was 5 (5=81-100%) in each case. Further, the “percentage damage caused to the plant, AMARE (five-point scale)” value in assay [2] and in assay [6] was 5 (5=81-100%) each time. The “percentage damage caused to the plant, ECHCG (five-point scale)” value in assay [3] and in assay [7] was 5 (5=81-100%) in each case. Also, the “percentage damage caused to the plant, IPOHE (five-point scale)” value in assay [4] and in assay [8] was 5 (5=81-100%) each time.

Consider `CC(C)c1nc(Cn2cc(C(F)(F)F)nc2-c2ccc(Cl)nc2)no1` [Compound 1.126], for which the “percentage damage caused to the plant, AMAPA (five-point scale)” value in assay [1] and in assay [5] was 1 (1=0-20%) each time. The “percentage damage caused to the plant, AMARE (five-point scale)” value in assay [2] and in assay [6] was 1 (1=0-20%) in each case. Besides, the “percentage damage caused to the plant, ECHCG (five-point scale)” value in assay [3] and in assay [7] was 1 (1=0-20%) throughout. In addition, the “percentage damage caused to the plant, IPOHE (five-point scale)” value in assay [4] and in assay [8] was 1 (1=0-20%) in each case.

Regarding `CCON=Cc1cn(Cc2cc(C)on2)c(-c2cnc(Cl)c(F)c2)n1` [Compound 1.179], the “percentage damage caused to the plant, AMAPA (five-point scale)” value in assay [1] is listed as 3 (3=41-60%); in assay [5], 5 (5=81-100%). Also, the “percentage damage caused to the plant, AMARE (five-point scale)” value in assay [2] is recorded as 3 (3=41-60%); in assay [6], 4 (4=61-80%). In addition, the “percentage damage caused to the plant, ECHCG (five-point scale)” value in assay [3] and in assay [7] was 1 (1=0-20%) throughout. The “percentage damage caused to the plant, IPOHE (five-point scale)” value in assay [4] and in assay [8] was 1 (1=0-20%) in each case.

With `Cc1nnc(Cn2cc(C(F)(F)F)nc2-c2cnc(F)c(Cl)c2)s1` [Compound 1.164], the “percentage damage caused to the plant, AMAPA (five-point scale)” value in assay [1] is 4 (4=61-80%); in assay [5] it was 5 (5=81-100%). Moreover, the “percentage damage caused to the plant, AMARE (five-point scale)” value in assay [2] and in assay [6] was 5 (5=81-100%) in each case. The results for the “percentage damage caused to the plant, ECHCG (five-point scale)” value in assay [3] and in assay [7] were 2 (2=21-40%) and 4 (4=61-80%), respectively. The “percentage damage caused to the plant, IPOHE (five-point scale)” value is on record as 3 (3=41-60%) in assay [4] and 5 (5=81-100%) in assay [8].

As to `CCn1nnc(Cn2cc(C(F)(F)F)nc2-c2ccc(Cl)nc2)n1` [Compound 1.086], the “percentage damage caused to the plant, AMAPA (five-point scale)” value in assay [1] and in assay [5] was 5 (5=81-100%) throughout. Further, the “percentage damage caused to the plant, AMARE (five-point scale)” value in assay [2] and in assay [6] was 5 (5=81-100%) in each case. Also, the “percentage damage caused to the plant, ECHCG (five-point scale)” value in assay [3] and in assay [7] was 5 (5=81-100%) in each case. Further, the “percentage damage caused to the plant, IPOHE (five-point scale)” value in assay [4] and in assay [8] was 5 (5=81-100%) throughout.

In the case of `Cn1cc(Cn2cc(C(F)(F)F)nc2-c2ccc(C(F)(F)F)cc2)c(C(F)(F)F)n1` [Compound 1.014], the “percentage damage caused to the plant, AMAPA (five-point scale)” value in assay [1] and in assay [5] was 1 (1=0-20%) throughout. For the same molecule, the “percentage damage caused to the plant, AMARE (five-point scale)” value in assay [2] and in assay [6] was 1 (1=0-20%) in each case. Also, the “percentage damage caused to the plant, ECHCG (five-point scale)” value in assay [3] and in assay [7] was 1 (1=0-20%) each time. In addition, the “percentage damage caused to the plant, IPOHE (five-point scale)” value in assay [4] and in assay [8] was 1 (1=0-20%) throughout.

Turning to `Cc1nnc(Cn2cc(C(F)(F)F)nc2-c2cnc(Cl)c(F)c2)s1` [Compound 1.017], the “percentage damage caused to the plant, AMAPA (five-point scale)” value in assay [1] and in assay [5] was 5 (5=81-100%) each time. Also, the “percentage damage caused to the plant, AMARE (five-point scale)” value in assay [2] and in assay [6] was 5 (5=81-100%) in each case. For the same molecule, the “percentage damage caused to the plant, ECHCG (five-point scale)” value in assay [3] was 2 (2=21-40%); in assay [7] it was 4 (4=61-80%). The “percentage damage caused to the plant, IPOHE (five-point scale)” value is given as 1 (1=0-20%) in assay [4] and 5 (5=81-100%) in assay [8].

Turning to `Cc1nc(Cn2cc(C(F)(F)F)nc2-c2ccc(S(C)(=O)=O)cc2)no1` [Compound 1.159], the “percentage damage caused to the plant, AMAPA (five-point scale)” value in assay [1] and in assay [5] was 5 (5=81-100%) each time. Moreover, the “percentage damage caused to the plant, AMARE (five-point scale)” value in assay [2] and in assay [6] was 5 (5=81-100%) in each case. Also, the “percentage damage caused to the plant, ECHCG (five-point scale)” value in assay [3] is given as 2 (2=21-40%); in assay [7], 1 (1=0-20%). Besides, the “percentage damage caused to the plant, IPOHE (five-point scale)” value in assay [4] and in assay [8] was 5 (5=81-100%) in each case.

As to `FC(F)(F)c1ccc(-c2nc(C(F)(F)F)cn2Cc2nsc(Cl)n2)cc1` [Compound 1.002], the “percentage damage caused to the plant, AMAPA (five-point scale)” value in assay [1] and in assay [5] was 1 (1=0-20%) throughout. Moreover, in assay [2], the “percentage damage caused to the plant, AMARE (five-point scale)” value is reported as 2 (2=21-40%). In addition, the “percentage damage caused to the plant, ECHCG (five-point scale)” value in assay [3] and in assay [7] was 1 (1=0-20%) in each case. Moreover, the “percentage damage caused to the plant, IPOHE (five-point scale)” value in assay [4] is given as 3 (3=41-60%); in assay [8], 1 (1=0-20%).

Take `Cc1nc(Cn2cc(C(F)(F)F)nc2-c2ccc(C(F)(F)F)cc2)co1` [Compound 1.012]: the “percentage damage caused to the plant, AMAPA (five-point scale)” value in assay [1] is recorded as 1 (1=0-20%). The results for the “percentage damage caused to the plant, AMARE (five-point scale)” value in assay [2] and in assay [6] were 1 (1=0-20%) and 2 (2=21-40%), respectively. Moreover, the “percentage damage caused to the plant, ECHCG (five-point scale)” value in assay [3] and in assay [7] was 1 (1=0-20%) each time. In addition, the “percentage damage caused to the plant, IPOHE (five-point scale)” value in assay [4] was 3 (3=41-60%); in assay [8] it was 1 (1=0-20%).

For the origin of these results see patent US20260125360A1, “HERBICIDAL IMIDAZOLE COMPOUNDS” (SYNGENTA CROP PROTECTION AG, priority 2022, published 2026).
